Data as given in patent US12134759B2, “Glomerulus on a chip to recapitulate glomerular filtration barrier” (Children's Hospital Los Angeles, priority 2019, dated 2024).
“Also recorded” adds a separate entry of the source. No end group written: not given here.

Legend:
[1] = tested on: GOAC (human podocytes + hGEC glomerular filtration barrier); test: Albumin permselectivity assay on the GOAC after puromycin aminonucleoside (PAN) injury; type: cell-based; settings: PAN 5 days (10 μg/ml, 10 mg/ml elsewhere in the source); albumin-FITC 40 mg/ml; hAKPC-P+hGEC, hiPOD+hGEC, hpPOD+hGEC chips
Protocol: (§1) An albumin and inulin permeability assay were established to evaluate the efficiency of the created GFB. The number of chips used for each experiment is described in the corresponding figure legend. Media was aspirated from the bottom inlet and outlet, to which PBS was added. Then, media from the top inlet and outlet was aspirated. Fifty microliters albumin-FITC (Millipore Sigma, c #A9771) or inulin-FITC (10 mg/ml, Sigma, c #F3272) was added to the top inlet and outlet, such that the orientation of filtration would be simulated as in native blood flow: from endothelial cells, through podocytes, and into the urinary space of Bowman's capsule. […] Absorbance was measured using the Perkin Elmer Victor 3 plate reader using Wallac 1420 workstation software (fluorescein 485/535, 0.1 s). For long-term studies, the same chips were evaluated for permselectivity at respectively 1, 2, 3, and 4 weeks (hAKPC and hpPOD; hiPOD were evaluated for weeks 1 and 2 since after this time frame these chips are not properly functioning) after hGEC seeding. […] After each reading, as described above, the albumin-FITC solution and PBS were removed from the top and bottom inlets and outlets and chips were carefully rinsed with PBS twice to remove excess albumin-FITC before returning to fresh culture medium. […] Efficiency at each time point is expressed as %±SEM. […]

podocytes in GOAC = test: F-actin staining of podocytes in the GOAC before and after PAN damage; type: cell-based, human; settings: after PAN damage; hAKPC-P+hGEC, hiPOD+hGEC, hpPOD+hGEC chips
Protocol: Immunofluorescent staining was performed on OrganoPlate™ and chamber slides of representative cell types: following fixation by 4% paraformaldehyde (Santa Cruz Biotechnology c #sc-281692) and serial washes with PBS. Chips/wells of interest were prepared for staining by blocking with 5% bovine serum albumin (Jackson ImmunoResearch Lab, c #001-000-162) in PBS for 30 min. Primary, secondary, and pre-conjugated antibodies were diluted in 2.5% BSA Jackson ImmunoResearch Lab. c #001-000-162) as indicated in Table 1. Thirty microliters of solution were added to the top and bottom inlets and outlets of the chips or 100 μl of solution was added directly into the chamber slide wells. Primary antibodies were incubated at RT for 1 h; following serial washes, secondary antibodies were incubated at RT for 30 min. After a final series of washes in PBS, DAPI was applied (1:1000 in PBS; BD Pharmingen, c #564907) and the OrganoPlate™ or the wells were stored at 4° C. until imaged by confocal microscopy (Zeiss 710 microscope) and processed using the ZEN10 software.
In all, 10 μg/ml of PAN, a nephrotoxic molecule (Cayman Chemical c #15509), was supplemented to the media for 5 days. Media without PAN was used as a control. […] After PAN injury, damage was assessed using the albumin assay performed on the chip as described above.

hAKPC-P+hGEC GOAC = test: α-MSH drug rescue of MN serum effect, albumin permselectivity assay; type: cell-based, human; settings: 10 ng/ml α-MSH with 0.5% MN serum (MN3), 24 h; filtrate at 60 min
Protocol: as §1

CN(C)c1ncnc2c1ncn2[C@@H]1O[C@H](CO)[C@@H](N)[C@H]1O [PAN, puromycin aminonucleoside]
albumin permselectivity / albumin leakage (fluorescein absorbance in filtrate after 60 min) [1]: loss of permselectivity for albumin; also recorded: marked and statistically significant increase | podocyte cytoskeleton (F-actin staining) (podocytes in GOAC): cytoskeleton rearrangement; also recorded: widespread disruption of the cytoskeleton

α-Melanocyte-stimulating hormone (SYSMEHFRWGKPV; ends and bridges not checked; UniProt P01189 138-150, looked up) [α-MSH]
proteinuria (albumin-FITC leakage) elicited by MN serum (hAKPC-P+hGEC GOAC): prevented proteinuria elicited by MN serum; also recorded: prevented the proteinuric effects of MN sera
